According to ChEMBL document CHEMBL5543172, “Novel Isoalantolactone-Based Derivatives as Potent NLRP3 Inflammasome Inhibitors: Design, Synthesis, and Biological Characterization” (J Med Chem, 2024):
Calls of active or inactive are those of the source. No cut-off for these calls is given here.

Tests used:
[1] = Half life in male C57BL/6 mouse at 30 mg/kg, ip measured upto 1440 mins by LC-MS/MS analysis; type: ADME, organism-based; conditions: in vivo
[2] = biological target: Voltage-dependent N-type calcium channel subunit alpha-1B (Homo sapiens) (UniProt Q00975); assay: Inhibition of Cav2.2 (unknown origin) at 1 uM relative to control
Sequence of Voltage-dependent N-type calcium channel subunit alpha-1B (Homo sapiens) (Q00975 whole entry, looked up): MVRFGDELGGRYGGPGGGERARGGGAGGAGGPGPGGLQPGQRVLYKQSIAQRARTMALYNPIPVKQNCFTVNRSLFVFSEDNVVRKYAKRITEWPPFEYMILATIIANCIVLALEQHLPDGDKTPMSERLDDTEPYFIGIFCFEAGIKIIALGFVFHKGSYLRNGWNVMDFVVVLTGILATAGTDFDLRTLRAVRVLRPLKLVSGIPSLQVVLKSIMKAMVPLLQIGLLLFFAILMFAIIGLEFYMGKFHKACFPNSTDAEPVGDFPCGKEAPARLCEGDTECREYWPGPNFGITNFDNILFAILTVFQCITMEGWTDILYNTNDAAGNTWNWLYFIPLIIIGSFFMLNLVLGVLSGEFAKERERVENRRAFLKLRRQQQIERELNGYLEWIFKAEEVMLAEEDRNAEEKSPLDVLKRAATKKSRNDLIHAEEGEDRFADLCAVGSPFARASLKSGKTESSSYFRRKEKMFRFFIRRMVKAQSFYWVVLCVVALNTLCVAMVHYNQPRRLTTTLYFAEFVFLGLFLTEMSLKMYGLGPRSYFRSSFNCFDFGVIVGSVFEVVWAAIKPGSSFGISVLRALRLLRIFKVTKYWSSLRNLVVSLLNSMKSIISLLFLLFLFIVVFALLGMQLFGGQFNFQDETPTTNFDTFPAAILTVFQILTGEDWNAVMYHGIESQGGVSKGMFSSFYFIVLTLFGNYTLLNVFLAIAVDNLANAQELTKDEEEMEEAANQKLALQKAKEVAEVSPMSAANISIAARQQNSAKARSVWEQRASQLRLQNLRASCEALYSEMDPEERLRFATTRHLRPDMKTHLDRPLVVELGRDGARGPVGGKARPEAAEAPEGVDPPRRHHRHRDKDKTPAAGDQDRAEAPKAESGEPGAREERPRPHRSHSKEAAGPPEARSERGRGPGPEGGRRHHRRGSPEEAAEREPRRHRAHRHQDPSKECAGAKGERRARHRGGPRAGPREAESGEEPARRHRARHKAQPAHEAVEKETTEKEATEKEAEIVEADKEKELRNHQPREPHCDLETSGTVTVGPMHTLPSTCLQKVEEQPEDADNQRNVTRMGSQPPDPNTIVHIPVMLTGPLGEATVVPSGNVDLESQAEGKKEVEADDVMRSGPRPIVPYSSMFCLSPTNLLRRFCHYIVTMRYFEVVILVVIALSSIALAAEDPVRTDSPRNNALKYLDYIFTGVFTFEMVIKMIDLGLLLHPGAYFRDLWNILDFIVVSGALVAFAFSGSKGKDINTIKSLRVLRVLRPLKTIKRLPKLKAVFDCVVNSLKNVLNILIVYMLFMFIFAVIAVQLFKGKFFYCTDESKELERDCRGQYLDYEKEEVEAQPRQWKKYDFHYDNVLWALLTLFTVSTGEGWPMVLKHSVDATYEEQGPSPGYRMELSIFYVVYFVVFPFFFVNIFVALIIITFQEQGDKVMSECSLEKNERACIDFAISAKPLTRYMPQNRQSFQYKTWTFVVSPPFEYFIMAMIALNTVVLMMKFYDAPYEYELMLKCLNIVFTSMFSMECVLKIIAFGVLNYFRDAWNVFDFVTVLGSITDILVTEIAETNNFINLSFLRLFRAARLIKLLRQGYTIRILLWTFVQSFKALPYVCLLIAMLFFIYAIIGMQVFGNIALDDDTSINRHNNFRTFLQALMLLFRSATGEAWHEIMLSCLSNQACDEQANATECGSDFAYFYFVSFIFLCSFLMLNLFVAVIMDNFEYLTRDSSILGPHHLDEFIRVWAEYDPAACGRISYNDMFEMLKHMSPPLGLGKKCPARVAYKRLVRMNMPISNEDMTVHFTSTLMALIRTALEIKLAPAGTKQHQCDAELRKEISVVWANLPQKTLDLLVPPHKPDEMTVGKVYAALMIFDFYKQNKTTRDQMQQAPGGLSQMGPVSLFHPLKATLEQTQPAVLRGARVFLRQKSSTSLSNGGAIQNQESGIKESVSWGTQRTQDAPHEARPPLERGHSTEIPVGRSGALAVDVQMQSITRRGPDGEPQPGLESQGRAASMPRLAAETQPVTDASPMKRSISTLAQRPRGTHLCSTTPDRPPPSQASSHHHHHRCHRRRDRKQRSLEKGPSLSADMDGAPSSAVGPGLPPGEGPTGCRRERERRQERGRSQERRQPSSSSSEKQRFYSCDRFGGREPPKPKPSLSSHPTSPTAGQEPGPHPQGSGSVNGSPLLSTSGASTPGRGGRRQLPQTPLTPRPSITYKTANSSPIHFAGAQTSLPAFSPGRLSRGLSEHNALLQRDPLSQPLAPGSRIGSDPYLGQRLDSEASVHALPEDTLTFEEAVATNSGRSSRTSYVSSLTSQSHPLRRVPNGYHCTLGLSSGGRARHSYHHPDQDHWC

BMDM [3] = assay: Inhibition of pyroptosis in LPS/nigericin induced […] cells assessed as reduction in red fluorescence production preincubated with LPS for 3 hrs followed by compound addition for 40 mins and further stimulated with nigericin for 40 mins by PI staining based inverted microscopy based analysis; type: functional, cell-based; conditions: dose 0.25-1 µM, time 80.0 min
Mus musculus [4] = assay: Anti-colitis activity against DSS-induced ulcerative colitis C57BL/6 mouse model assessed as alleviation of thickening of inherent base layer in colon at 15 to 30 mg/kg, ip administered daily and measured after 10 days by H and E staining based analysis; type: functional, organism-based; conditions: dose 15-30 mg/kg, time 10.0 day
Cytochrome P450 1A2 = Cytochrome P450 1A2 (Homo sapiens, UniProt P05177); assay: Inhibition of CYP1A2 in human liver microsomes using phenacetin as substrate preincubated for 5 mins followed by NADPH addition and measured after 30 to 60 mins by LC-MS/MS analysis; type: ADME, Microsome
[5] = biological target: Voltage-dependent N-type calcium channel subunit alpha-1B (Homo sapiens) (UniProt Q00975); assay: Activation of Cav2.2 (unknown origin) at 1 uM relative to control
[6] = biological target: 3',5'-cyclic-AMP phosphodiesterase 4D (Homo sapiens) (UniProt Q08499); assay: Activation of PDE4D2 (unknown origin) at 1 uM relative to control
Sequence of 3',5'-cyclic-AMP phosphodiesterase 4D (Homo sapiens) (Q08499 whole entry): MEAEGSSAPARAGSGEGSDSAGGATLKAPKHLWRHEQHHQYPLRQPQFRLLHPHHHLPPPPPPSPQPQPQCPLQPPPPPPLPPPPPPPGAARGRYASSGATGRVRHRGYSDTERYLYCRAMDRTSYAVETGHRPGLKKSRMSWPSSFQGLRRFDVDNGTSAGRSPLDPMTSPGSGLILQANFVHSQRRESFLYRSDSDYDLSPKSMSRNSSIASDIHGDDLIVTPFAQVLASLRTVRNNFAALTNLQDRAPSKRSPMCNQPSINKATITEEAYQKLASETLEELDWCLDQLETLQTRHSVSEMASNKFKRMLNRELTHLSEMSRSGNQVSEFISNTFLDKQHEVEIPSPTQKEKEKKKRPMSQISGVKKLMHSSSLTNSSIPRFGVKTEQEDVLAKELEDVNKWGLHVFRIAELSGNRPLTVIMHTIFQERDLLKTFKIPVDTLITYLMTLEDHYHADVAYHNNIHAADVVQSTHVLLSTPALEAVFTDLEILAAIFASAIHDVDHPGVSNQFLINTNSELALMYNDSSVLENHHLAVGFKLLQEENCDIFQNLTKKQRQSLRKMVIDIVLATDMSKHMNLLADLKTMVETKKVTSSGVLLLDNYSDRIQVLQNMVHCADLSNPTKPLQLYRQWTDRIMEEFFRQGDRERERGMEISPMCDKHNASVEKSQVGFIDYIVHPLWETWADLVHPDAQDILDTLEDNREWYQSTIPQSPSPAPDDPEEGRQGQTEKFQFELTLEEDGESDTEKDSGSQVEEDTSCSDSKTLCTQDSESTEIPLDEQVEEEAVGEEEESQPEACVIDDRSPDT

THP-1 [7] = assay: Inhibition of NLRP3-ASC interaction in LPS/nigericin stimulated human THP-1 cells at 1 uM preincubated with LPS for 3 hrs followed by compound addition for 40 mins and further stimulated with nigericin for 40 mins by immunoprecipitation analysis; type: cell-based; conditions: time 80.0 min
[8] = biological target: 5-hydroxytryptamine receptor 7 (Homo sapiens) (UniProt P34969); assay: Inhibition of 5-HT7 receptor (unknown origin) at 1 uM relative to control
Mus musculus [9] = assay: Anti-colitis activity against DSS-induced ulcerative colitis C57BL/6 mouse model assessed as alleviation of grave ulcer formation in colon at 15 to 30 mg/kg, ip administered daily and measured after 10 days by H and E staining based analysis; type: functional, organism-based; conditions: dose 15-30 mg/kg, time 10.0 day
[10] = biological target: Substance-K receptor (Homo sapiens) (UniProt P21452); assay: Inhibition of NK2 receptor (unknown origin) at 1 uM relative to control
Sequence of Substance-K receptor (Homo sapiens) (P21452 whole entry, the tested form may be a part): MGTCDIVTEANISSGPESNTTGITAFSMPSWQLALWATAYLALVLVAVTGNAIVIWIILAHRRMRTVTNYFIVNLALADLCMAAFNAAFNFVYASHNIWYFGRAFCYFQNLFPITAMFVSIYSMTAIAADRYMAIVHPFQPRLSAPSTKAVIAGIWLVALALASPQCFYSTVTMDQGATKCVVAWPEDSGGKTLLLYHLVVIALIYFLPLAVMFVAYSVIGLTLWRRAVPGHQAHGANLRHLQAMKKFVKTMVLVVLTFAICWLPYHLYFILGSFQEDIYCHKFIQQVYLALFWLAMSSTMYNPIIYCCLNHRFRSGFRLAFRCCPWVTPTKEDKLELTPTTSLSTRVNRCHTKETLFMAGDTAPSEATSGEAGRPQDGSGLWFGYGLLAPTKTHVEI

[11] = biological target: NACHT, LRR and PYD domains-containing protein 3 (Mus musculus) (UniProt Q8R4B8); assay: Inhibition of NLRP3 inflammasome activation in LPS/Nigericin induced mouse BMDM cells assessed as effect on ASC expression at 0.25 to 1 uM preincubated with LPS for 3 hrs followed by compound addition for 40 mins and further stimulated with nigericin for 40 mins by Western blot analysis; type: cell-based; conditions: dose 0.25-1 µM, time 80.0 min
Sequence of NACHT, LRR and PYD domains-containing protein 3 (Mus musculus) (Q8R4B8 whole entry, the tested form may be a part): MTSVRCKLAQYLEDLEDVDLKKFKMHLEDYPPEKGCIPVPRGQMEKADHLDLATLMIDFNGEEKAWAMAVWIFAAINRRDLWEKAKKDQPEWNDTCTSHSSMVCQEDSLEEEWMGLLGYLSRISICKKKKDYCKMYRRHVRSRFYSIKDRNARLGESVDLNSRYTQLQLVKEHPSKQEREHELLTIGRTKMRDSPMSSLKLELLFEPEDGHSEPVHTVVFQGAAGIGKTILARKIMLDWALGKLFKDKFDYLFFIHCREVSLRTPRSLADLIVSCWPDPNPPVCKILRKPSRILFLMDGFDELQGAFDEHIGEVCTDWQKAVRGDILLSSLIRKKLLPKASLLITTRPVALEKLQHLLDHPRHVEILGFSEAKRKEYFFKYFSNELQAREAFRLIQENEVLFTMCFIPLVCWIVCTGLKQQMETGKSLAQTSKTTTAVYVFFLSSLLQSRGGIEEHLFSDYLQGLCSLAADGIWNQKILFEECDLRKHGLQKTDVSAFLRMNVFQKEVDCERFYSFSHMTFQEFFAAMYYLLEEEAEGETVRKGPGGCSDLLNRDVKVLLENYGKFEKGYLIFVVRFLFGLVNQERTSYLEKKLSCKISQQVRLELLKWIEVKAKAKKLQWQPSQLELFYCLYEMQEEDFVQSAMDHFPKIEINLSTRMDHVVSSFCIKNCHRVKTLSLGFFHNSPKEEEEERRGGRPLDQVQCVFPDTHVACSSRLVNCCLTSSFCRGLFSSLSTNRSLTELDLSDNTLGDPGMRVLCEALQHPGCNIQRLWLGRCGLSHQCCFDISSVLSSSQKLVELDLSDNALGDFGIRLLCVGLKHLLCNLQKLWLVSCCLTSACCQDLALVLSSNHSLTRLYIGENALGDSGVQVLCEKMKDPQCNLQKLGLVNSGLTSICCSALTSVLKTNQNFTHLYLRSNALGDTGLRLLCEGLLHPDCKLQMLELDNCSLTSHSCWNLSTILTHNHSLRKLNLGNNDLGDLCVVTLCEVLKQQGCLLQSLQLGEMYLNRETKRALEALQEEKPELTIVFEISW

[12] = biological target: 3',5'-cyclic-AMP phosphodiesterase 4D (Homo sapiens) (UniProt Q08499); assay: Inhibition of PDE4D2 (unknown origin) at 1 uM relative to control
[13] = biological target: Alpha-1A adrenergic receptor (Homo sapiens) (UniProt P35348); assay: Activation of alpha 1A adrenergic receptor (unknown origin) at 1 uM relative to control
Sequence of Alpha-1A adrenergic receptor (Homo sapiens) (P35348 whole entry, the tested form may be a part): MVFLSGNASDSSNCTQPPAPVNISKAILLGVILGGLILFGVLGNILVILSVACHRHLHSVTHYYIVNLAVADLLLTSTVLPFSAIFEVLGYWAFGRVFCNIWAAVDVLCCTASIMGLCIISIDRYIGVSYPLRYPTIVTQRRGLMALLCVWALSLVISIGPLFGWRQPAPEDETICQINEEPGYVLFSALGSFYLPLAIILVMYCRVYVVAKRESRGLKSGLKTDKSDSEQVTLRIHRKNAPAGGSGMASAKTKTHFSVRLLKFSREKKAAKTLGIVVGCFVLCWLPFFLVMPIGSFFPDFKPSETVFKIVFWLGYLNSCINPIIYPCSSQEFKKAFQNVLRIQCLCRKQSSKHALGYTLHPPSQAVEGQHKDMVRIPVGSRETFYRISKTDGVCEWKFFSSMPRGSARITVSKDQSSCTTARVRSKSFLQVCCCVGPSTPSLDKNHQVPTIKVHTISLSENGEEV

[14] = biological target: Substance-K receptor (Homo sapiens) (UniProt P21452); assay: Activation of NK2 receptor (unknown origin) at 1 uM relative to control
Cytochrome P450 3A4 = Cytochrome P450 3A4 (Homo sapiens, UniProt P08684); assay: Inhibition of CYP3A4 in human liver microsomes using midazolam as substrate preincubated for 5 mins followed by NADPH addition and measured after 30 to 60 mins by LC-MS/MS analysis; type: ADME, Microsome
[15] = biological target: Cannabinoid receptor 2 (Homo sapiens) (UniProt P34972); assay: Inhibition of CB2 receptor (unknown origin) at 1 uM relative to control
BMDM [16] = assay: Induction of DNA damage in mouse BMDM cells assessed as DNA fragmentation at 1 uM measured after 24 hrs by fluorescence microscope based comet assay; type: functional, cell-based
[17] = Drug distribution in C57BL/6 mouse colon at 30 mg/kg, ip measured after 0.5 hrs by LC-MS/MS analysis; type: ADME, organism-based; conditions: read-out: Drug uptake
[18] = biological target: Prostaglandin G/H synthase 2 (Homo sapiens) (UniProt P35354); assay: Activation of COX2 (unknown origin) at 1 uM relative to control
Mus musculus [19] = assay: Anti-colitis activity against DSS-induced ulcerative colitis C57BL/6 mouse model assessed as reduction in colon length shortening at 15 to 30 mg/kg, ip administered daily and measured upto 10 days; type: functional, organism-based; conditions: dose 15-30 mg/kg, time <= 10.0 day
[20] = biological target: Adenosine receptor A2a (Homo sapiens) (UniProt P29274); assay: Inhibition of adenosine A2A receptor (unknown origin) at 1 uM relative to control
BMDM [21] = assay: Cytotoxicity against mouse BMDM cells at 0.25 to 2 uM measured after 24 hrs by CCK-8 method; type: toxicity, cell-based; conditions: dose 0.25-2 µM
[22] = biological target: NACHT, LRR and PYD domains-containing protein 3 (Mus musculus) (UniProt Q8R4B8); assay: Inhibition of NLRP3 inflammasome activation in LPS/nigericin induced mouse BMDM cells assessed as reduction in GSDMD-N expression at 0.25 to 1 uM preincubated with LPS for 3 hrs followed by compound addition for 40 mins and further stimulated with nigericin for 40 mins by Western blot analysis; type: cell-based; conditions: dose 0.25-1 µM, time 80.0 min
[23] = biological target: NACHT, LRR and PYD domains-containing protein 3 (Mus musculus) (UniProt Q8R4B8); assay: Inhibition of NLRP3 inflammasome activation in LPS/Nigericin induced mouse BMDM cells assessed as effect on NLRP3 expression at 0.25 to 1 uM preincubated with LPS for 3 hrs followed by compound addition for 40 mins and further stimulated with nigericin for 40 mins by Western blot analysis; type: cell-based; conditions: dose 0.25-1 µM, time 80.0 min
THP-1 [24] = assay: Cytotoxicity against human THP-1 cells at 0.25 to 2 uM measured after 24 hrs by CCK-8 method; type: functional, cell-based; conditions: dose 0.25-2 µM
[25] = biological target: Voltage-gated inwardly rectifying potassium channel KCNH2 (Homo sapiens, UniProt Q12809); assay: Inhibition of human ERG expressed in HEK293 cells; type: toxicity, cell-based
[26] = biological target: Prostaglandin E2 receptor EP2 subtype (Homo sapiens) (UniProt P43116); assay: Inhibition of EP2 receptor (unknown origin) at 1 uM relative to control
[27] = biological target: Alpha-1A adrenergic receptor (Homo sapiens) (UniProt P35348); assay: Inhibition of alpha 1A adrenergic receptor (unknown origin) at 1 uM relative to control
[28] = biological target: NACHT, LRR and PYD domains-containing protein 3 (Mus musculus) (UniProt Q8R4B8); assay: Inhibition of NLRP3 in LPS/nigericin induced […] mouse BMDM cells assessed as inhibition of IL-18 secretion 0.25 to 1 uM preincubated with LPS for 3 hrs followed by compound addition for 40 mins and further stimulated with nigericin for 40 mins by ELISA method; type: cell-based; conditions: dose 0.25-1 µM, time 80.0 min
[29] = Drug distribution in C57BL/6 mouse plasma at 30 mg/kg, ip measured after 8 hrs by LC-MS/MS analysis; type: ADME, organism-based
[30] = biological target: Substance-P receptor (Homo sapiens) (UniProt P25103); assay: Activation of NK1 receptor (unknown origin) at 1 uM relative to control
[31] = Tmax in male C57BL/6 mouse at 30 mg/kg, ip measured upto 1440 mins by LC-MS/MS analysis; type: ADME, organism-based; conditions: in vivo
[32] = Genotoxicity in mouse BMDM cells; type: toxicity, cell-based
[33] = biological target: Glucocorticoid receptor (Homo sapiens) (UniProt P04150); assay: Activation of GR receptor (unknown origin) at 1 uM relative to control

- half-life [1]: 6.83 h
- inhibition [2]: < 50%
- IC50 (Cytochrome P450 1A2): > 100 µM
- Activity [5]: < 50%
- Activity [6]: < 50%
- inhibition [8]: < 50%
- inhibition [10]: < 50%
- inhibition [11]: inactive
- inhibition [12]: < 50%
- Activity [13]: < 50%
- Activity [14]: < 50%
- IC50 (Cytochrome P450 3A4): > 100 µM
- inhibition [15]: < 50%
- concentration at 0.5 h [17]: 12900 ng/g
- Activity [18]: < 50%
- inhibition [20]: < 50%
- inhibition [22]: Active
- inhibition [23]: inactive
- inhibition [26]: < 50%
- inhibition [27]: < 50%
- inhibition [28]: Active
- concentration at 8 h [29]: 1.52 ng/mL
- Activity [30]: < 50%
- Tmax [31]: 0.78 h
- Activity [33]: < 50%
SMILES: C=C1C(=O)O[C@@H]2C[C@@]3(C)CC[C@@H](OC(=O)c4cnc(Cl)cc4Cl)C(=C)[C@@H]3C[C@H]12
- inhibition (BMDM [3]): Active
- Activity (Mus musculus [4]): Active
- inhibition (THP-1 [7]): Active
- Activity (Mus musculus [9]): Active
- Activity (BMDM [16]): Active
- Activity (Mus musculus [19]): Active
- Activity (BMDM [21]): Non-Toxic
- Activity (THP-1 [24]): inactive
- IC50 [25]: 10.6 µM
- Activity [32]: Non-Toxic
